Common to all, as to assay: relative viability (nuclei count vs DMSO), 5 days (fraction); higher = more cells survive
Compound in the assay “Bosutinib + Palbociclib”: COc1cc(Nc2c(C#N)cnc3cc(OCCCN4CCN(C)CC4)c(OC)cc23)c(Cl)cc1Cl [Bosutinib] + CC(=O)c1c(C)c2cnc(Nc3ccc(N4CCNCC4)cn3)nc2n(C2CCCC2)c1=O [Palbociclib] (partner 0.5 µM)
The essentials: (§1)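 Lung cancer cell lines were pin-tool dosed in 1536-well plates on the day after seeding, with either a lone drug or a fixed anchor-drug dose plus five library-drug doses (not always all listed) in √10 steps. Nuclei were counted on 4× images after 5 days. Relative viability is the ratio of treated-well to vehicle-well nuclei counts, with each value a median of duplicate plates.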

Compound in the assay “Bosutinib + Luminespib”: COc1cc(Nc2c(C#N)cnc3cc(OCCCN4CCN(C)CC4)c(OC)cc23)c(Cl)cc1Cl [Bosutinib] + CCNC(=O)c1noc(-c2cc(C(C)C)c(O)cc2O)c1-c1ccc(CN2CCOCC2)cc1 [Luminespib] (partner 0.01 µM)
The method in brief:
as §1

Compound in the assay “Bosutinib + Linsitinib”: COc1cc(Nc2c(C#N)cnc3cc(OCCCN4CCN(C)CC4)c(OC)cc23)c(Cl)cc1Cl [Bosutinib] + C[C@]1(O)C[C@@H](c2nc(-c3ccc4ccc(-c5ccccc5)nc4c3)c3c(N)nccn32)C1 [Linsitinib] (partner 1 µM)
The method in brief:
as §1

Compound in the assay “Bosutinib + AZD7762”: COc1cc(Nc2c(C#N)cnc3cc(OCCCN4CCN(C)CC4)c(OC)cc23)c(Cl)cc1Cl [Bosutinib] + NC(=O)Nc1cc(-c2cccc(F)c2)sc1C(=O)N[C@H]1CCCNC1 [AZD7762] (partner 0.2 µM)
The method in brief: as §1

Compound in the assay “Bosutinib + Olaparib”: COc1cc(Nc2c(C#N)cnc3cc(OCCCN4CCN(C)CC4)c(OC)cc23)c(Cl)cc1Cl [Bosutinib] + O=C(c1cc(Cc2n[nH]c(=O)c3ccccc23)ccc1F)N1CCN(C(=O)C2CC2)CC1 [Olaparib] (partner 8 µM)
The essentials: as §1

As to NCI-H2347, the relative viability with Bosutinib + Palbociclib (first compound 0.01 µM) is 0.499; in the assay with Bosutinib + Palbociclib (first compound 0.03162 µM), 0.425; in the assay with Bosutinib + Palbociclib (first compound 0.1 µM), 0.432; with Bosutinib + Palbociclib (first compound 1 µM), 0.453; with Bosutinib + Luminespib (first compound 0.01 µM), 0.39; with Bosutinib + Luminespib (first compound 0.03162 µM), 0.507. Besides, the relative viability with Bosutinib + Luminespib (first compound 0.1 µM) worked out at 0.472; in the assay with Bosutinib + Luminespib (first compound 1 µM) it was 0.266; in the assay with Bosutinib + Linsitinib (first compound 0.01 µM), 1.08; in the assay with Bosutinib + Linsitinib (first compound 0.03162 µM), 1; with Bosutinib + Linsitinib (first compound 0.1 µM), 1.01; in the assay with Bosutinib + Linsitinib (first compound 1 µM), 0.987. For the same cell line, the relative viability in the assay with Bosutinib + AZD7762 (first compound 0.01 µM) is 0.748; with Bosutinib + AZD7762 (first compound 0.03162 µM), 0.725; with Bosutinib + AZD7762 (first compound 0.1 µM), 0.777; with Bosutinib + AZD7762 (first compound 1 µM), 0.487; in the assay with Bosutinib + Olaparib (first compound 0.01 µM) it was 0.491; with Bosutinib + Olaparib (first compound 0.03162 µM), 0.609. The results for the relative viability with Bosutinib + Olaparib (first compound 0.1 µM) and with Bosutinib + Olaparib (first compound 1 µM) were 0.545 and 0.539, respectively.
On to NCI-H2405, for which the relative viability in the assay with Bosutinib + Palbociclib (first compound 0.01 µM) is 0.518; with Bosutinib + Palbociclib (first compound 0.03162 µM), 0.514; with Bosutinib + Palbociclib (first compound 0.1 µM), 0.561; with Bosutinib + Palbociclib (first compound 1 µM), 0.383; with Bosutinib + Luminespib (first compound 0.01 µM), 0.661; in the assay with Bosutinib + Luminespib (first compound 0.03162 µM), 0.645. For the same cell line, the relative viability was determined as 0.696 with Bosutinib + Luminespib (first compound 0.1 µM); 0.439 with Bosutinib + Luminespib (first compound 1 µM); 0.953 in the assay with Bosutinib + Linsitinib (first compound 0.01 µM); 0.949 with Bosutinib + Linsitinib (first compound 0.03162 µM); 0.954 in the assay with Bosutinib + Linsitinib (first compound 0.1 µM); 0.418 with Bosutinib + Linsitinib (first compound 1 µM). The relative viability with Bosutinib + AZD7762 (first compound 0.01 µM) is 0.873; with Bosutinib + AZD7762 (first compound 0.03162 µM), 0.739; in the assay with Bosutinib + AZD7762 (first compound 0.1 µM), 0.701; in the assay with Bosutinib + AZD7762 (first compound 1 µM), 0.598; in the assay with Bosutinib + Olaparib (first compound 0.01 µM), 0.978; with Bosutinib + Olaparib (first compound 0.03162 µM) it was 0.887. Moreover, the relative viability with Bosutinib + Olaparib (first compound 0.1 µM) turned out to be 0.902; in the assay with Bosutinib + Olaparib (first compound 1 µM) it was 0.691.
With NCI-H3122, the relative viability with Bosutinib + Palbociclib (first compound 0.01 µM) was found to be 0.214; in the assay with Bosutinib + Palbociclib (first compound 0.03162 µM), 0.18; with Bosutinib + Palbociclib (first compound 0.1 µM), 0.201; with Bosutinib + Palbociclib (first compound 1 µM), 0.218; in the assay with Bosutinib + Luminespib (first compound 0.01 µM), 0.0649; in the assay with Bosutinib + Luminespib (first compound 0.03162 µM), 0.0933. Moreover, the relative viability came out at 0.104 with Bosutinib + Luminespib (first compound 0.1 µM); 0.104 with Bosutinib + Luminespib (first compound 1 µM); 0.981 with Bosutinib + Linsitinib (first compound 0.01 µM); 0.995 with Bosutinib + Linsitinib (first compound 0.03162 µM); 1.09 with Bosutinib + Linsitinib (first compound 0.1 µM); 0.989 with Bosutinib + Linsitinib (first compound 1 µM). The relative viability with Bosutinib + AZD7762 (first compound 0.01 µM) is 1.01; with Bosutinib + AZD7762 (first compound 0.03162 µM), 0.884; with Bosutinib + AZD7762 (first compound 0.1 µM) it was 0.947; in the assay with Bosutinib + AZD7762 (first compound 1 µM) it was 0.975; with Bosutinib + Olaparib (first compound 0.01 µM), 0.678; with Bosutinib + Olaparib (first compound 0.03162 µM) it was 0.653. The relative viability is 0.658 with Bosutinib + Olaparib (first compound 0.1 µM) and 0.559 with Bosutinib + Olaparib (first compound 1 µM).
Consider PC-3 [JPC-3], for which the relative viability came to 0.506 with Bosutinib + Palbociclib (first compound 0.01 µM); 0.543 with Bosutinib + Palbociclib (first compound 0.03162 µM); 0.542 with Bosutinib + Palbociclib (first compound 0.1 µM); 0.516 with Bosutinib + Palbociclib (first compound 1 µM); 0.679 with Bosutinib + Luminespib (first compound 0.01 µM); 0.835 with Bosutinib + Luminespib (first compound 0.03162 µM). Moreover, the relative viability with Bosutinib + Luminespib (first compound 0.1 µM) amounted to 0.685; with Bosutinib + Luminespib (first compound 1 µM), 0.569; with Bosutinib + Linsitinib (first compound 0.01 µM), 0.954; with Bosutinib + Linsitinib (first compound 0.03162 µM), 0.957; with Bosutinib + Linsitinib (first compound 0.1 µM) it was 0.971; with Bosutinib + Linsitinib (first compound 1 µM) it was 0.912. Also, the relative viability with Bosutinib + AZD7762 (first compound 0.01 µM) is 0.787; with Bosutinib + AZD7762 (first compound 0.03162 µM), 0.738; with Bosutinib + AZD7762 (first compound 0.1 µM) it was 0.689; with Bosutinib + AZD7762 (first compound 1 µM), 0.641; with Bosutinib + Olaparib (first compound 0.01 µM), 1.08; with Bosutinib + Olaparib (first compound 0.03162 µM) it was 1.09. Further, the values for the relative viability with Bosutinib + Olaparib (first compound 0.1 µM) and in the assay with Bosutinib + Olaparib (first compound 1 µM) were 1.06 and 0.663, respectively.
For PC-14, the relative viability with Bosutinib + Palbociclib (first compound 0.01 µM) was 0.566; with Bosutinib + Palbociclib (first compound 0.03162 µM) it was 0.482; in the assay with Bosutinib + Palbociclib (first compound 0.1 µM), 0.32; with Bosutinib + Palbociclib (first compound 1 µM), 0.0932; with Bosutinib + Luminespib (first compound 0.01 µM), 0.109; with Bosutinib + Luminespib (first compound 0.03162 µM), 0.394. For the same cell line, the relative viability with Bosutinib + Luminespib (first compound 0.1 µM) was determined as 0.126; with Bosutinib + Luminespib (first compound 1 µM) it was 0.16; in the assay with Bosutinib + Linsitinib (first compound 0.01 µM) it was 0.927; with Bosutinib + Linsitinib (first compound 0.03162 µM) it was 1.01; with Bosutinib + Linsitinib (first compound 0.1 µM), 0.884; with Bosutinib + Linsitinib (first compound 1 µM), 0.285. The relative viability in the assay with Bosutinib + AZD7762 (first compound 0.01 µM) came to 0.351; with Bosutinib + AZD7762 (first compound 0.03162 µM), 0.284; with Bosutinib + AZD7762 (first compound 0.1 µM) it was 0.287; with Bosutinib + AZD7762 (first compound 1 µM), 0.193; with Bosutinib + Olaparib (first compound 0.01 µM), 0.241; with Bosutinib + Olaparib (first compound 0.03162 µM), 0.342. The relative viability with Bosutinib + Olaparib (first compound 0.1 µM) stood at 0.208; with Bosutinib + Olaparib (first compound 1 µM), 0.21.
Take RERF-LC-KJ: the relative viability worked out at 0.956 with Bosutinib + Palbociclib (first compound 0.01 µM); 1.06 with Bosutinib + Palbociclib (first compound 0.03162 µM); 1.06 with Bosutinib + Palbociclib (first compound 0.1 µM); 1.08 with Bosutinib + Palbociclib (first compound 1 µM); 1.22 with Bosutinib + Luminespib (first compound 0.01 µM); 1.21 with Bosutinib + Luminespib (first compound 0.03162 µM). Further, the relative viability is 1.18 with Bosutinib + Luminespib (first compound 0.1 µM); 1.15 in the assay with Bosutinib + Luminespib (first compound 1 µM); 0.893 with Bosutinib + Linsitinib (first compound 0.01 µM); 0.885 in the assay with Bosutinib + Linsitinib (first compound 0.03162 µM); 0.845 with Bosutinib + Linsitinib (first compound 0.1 µM); 0.838 with Bosutinib + Linsitinib (first compound 1 µM). Moreover, the relative viability in the assay with Bosutinib + AZD7762 (first compound 0.01 µM) is 0.979; in the assay with Bosutinib + AZD7762 (first compound 0.03162 µM), 0.982; with Bosutinib + AZD7762 (first compound 0.1 µM) it was 1.07; in the assay with Bosutinib + AZD7762 (first compound 1 µM), 0.877; with Bosutinib + Olaparib (first compound 0.01 µM) it was 0.883; with Bosutinib + Olaparib (first compound 0.03162 µM), 0.867. In addition, the relative viability in the assay with Bosutinib + Olaparib (first compound 0.1 µM) worked out at 0.958; with Bosutinib + Olaparib (first compound 1 µM), 0.989.

Values taken from the supplement of paper PMC10307832.
